The text below walks through data of ChEMBL document CHEMBL4732071, “Discovery of selective HDAC/BRD4 dual inhibitors as epigenetic probes” (Eur J Med Chem, 2021).

One assay has as its target Histone deacetylase 1 (Homo sapiens, UniProt Q13547). Description: Inhibition of HDAC1 (unknown origin) by fluorescence based assay.
The target in assay [1] is T1, Bromodomain-containing protein 4 (Homo sapiens, UniProt O60885). Description: Inhibition of His-tagged BRD4 bromodomain 1 (unknown origin) using [Lys (5,8,12,16) Ac] H4(1-21) as substrate by fluorescence based assay.
In assay [2] the target is T1, Bromodomain-containing protein 4. Description: Inhibition of His-tagged BRD4 bromodomain 2 (unknown origin) using [Lys (5,8,12,16) Ac] H4(1-21) as substrate by fluorescence based assay.
Another assay has as its system MV4-11. Description: Antiproliferative activity against human MV4-11 cells assessed as cell viability after 72 hrs by CCK8 assay. The conditions noted are these: MV4-11, 72 h. Format: functional, cell-based.
The target in assay [3] is T2, Protein deacetylase HDAC6 (Homo sapiens, UniProt Q9UBN7).
T2 sequence (Q9UBN7 whole entry): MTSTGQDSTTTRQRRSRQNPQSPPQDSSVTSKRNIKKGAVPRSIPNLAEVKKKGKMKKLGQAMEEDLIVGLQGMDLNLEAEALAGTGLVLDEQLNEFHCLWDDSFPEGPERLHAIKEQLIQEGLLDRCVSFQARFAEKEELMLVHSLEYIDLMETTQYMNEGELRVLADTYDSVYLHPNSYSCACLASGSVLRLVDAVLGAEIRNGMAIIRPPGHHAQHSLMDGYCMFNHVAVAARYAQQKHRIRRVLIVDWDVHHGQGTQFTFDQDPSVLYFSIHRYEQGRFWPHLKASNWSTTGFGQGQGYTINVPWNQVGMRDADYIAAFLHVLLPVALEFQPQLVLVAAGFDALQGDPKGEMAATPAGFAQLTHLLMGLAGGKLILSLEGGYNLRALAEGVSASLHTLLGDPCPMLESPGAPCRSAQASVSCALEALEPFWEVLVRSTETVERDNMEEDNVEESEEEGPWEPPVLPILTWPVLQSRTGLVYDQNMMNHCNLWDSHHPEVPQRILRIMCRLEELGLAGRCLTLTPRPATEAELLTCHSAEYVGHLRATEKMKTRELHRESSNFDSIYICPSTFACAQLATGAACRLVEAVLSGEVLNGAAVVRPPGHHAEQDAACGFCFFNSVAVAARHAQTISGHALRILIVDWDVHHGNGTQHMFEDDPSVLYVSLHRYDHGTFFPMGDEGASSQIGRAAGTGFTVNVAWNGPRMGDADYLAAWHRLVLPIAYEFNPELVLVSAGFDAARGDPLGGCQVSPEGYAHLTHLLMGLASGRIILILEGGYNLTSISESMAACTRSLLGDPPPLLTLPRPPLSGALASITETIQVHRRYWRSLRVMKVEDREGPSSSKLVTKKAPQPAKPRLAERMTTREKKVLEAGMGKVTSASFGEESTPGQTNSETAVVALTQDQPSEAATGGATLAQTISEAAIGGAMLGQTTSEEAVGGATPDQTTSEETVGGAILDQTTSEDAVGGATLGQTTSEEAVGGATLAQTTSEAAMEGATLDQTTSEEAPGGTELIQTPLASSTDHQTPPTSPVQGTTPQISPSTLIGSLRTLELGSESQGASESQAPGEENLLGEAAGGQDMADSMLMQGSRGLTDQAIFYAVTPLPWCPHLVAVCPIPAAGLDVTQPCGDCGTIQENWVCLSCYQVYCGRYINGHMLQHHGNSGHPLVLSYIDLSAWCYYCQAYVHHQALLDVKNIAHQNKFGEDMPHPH
Description: Inhibition of HDAC6 (unknown origin) by fluorescence based assay.

Histone deacetylase 1, sequence (Q13547 whole entry): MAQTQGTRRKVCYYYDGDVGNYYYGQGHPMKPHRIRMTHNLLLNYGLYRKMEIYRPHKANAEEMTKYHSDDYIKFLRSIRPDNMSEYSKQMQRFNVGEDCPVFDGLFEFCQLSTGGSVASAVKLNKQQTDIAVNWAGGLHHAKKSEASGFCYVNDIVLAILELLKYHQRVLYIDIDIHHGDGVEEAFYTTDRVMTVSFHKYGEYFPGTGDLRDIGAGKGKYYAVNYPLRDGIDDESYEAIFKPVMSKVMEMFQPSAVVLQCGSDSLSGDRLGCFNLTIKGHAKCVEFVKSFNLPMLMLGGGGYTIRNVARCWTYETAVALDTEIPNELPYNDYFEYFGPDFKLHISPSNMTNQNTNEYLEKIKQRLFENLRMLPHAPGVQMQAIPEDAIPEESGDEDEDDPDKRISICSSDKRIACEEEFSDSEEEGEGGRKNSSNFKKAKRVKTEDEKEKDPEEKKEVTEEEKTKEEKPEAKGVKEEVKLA

On to `CC(C)Oc1ccccc1-c1cn(C)c(=O)c2[nH]c(C(=O)NCc3ccc(C(=O)Nc4ccccc4N)cc3)cc12`, for which the IC50 against Histone deacetylase 1 worked out at 116 nM; in assay [1], 22.8 nM; in assay [2], 15.3 nM; with MV4-11, 130 nM.
Take `Cc1cc(F)cc(C)c1Oc1ccc(C(C)(C)O)cc1-c1cn(C)c(=O)c2[nH]c(C(=O)NCc3ccc(C(=O)Nc4ccccc4N)cc3)cc12`: the IC50 is over 500 nM against Histone deacetylase 1, 229 nM in assay [1], 36.6 nM in assay [2] and 240 nM in the assay with MV4-11.
In the case of `Cn1cc(-c2cc(C(C)(C)O)ccc2Oc2ccc(F)cc2F)c2cc(C(=O)NCCCCCCC(=O)NO)[nH]c2c1=O`, the half-inhibitory concentration (IC50) against Histone deacetylase 1 turned out to be 52 nM; in assay [3], 8.7 nM; in assay [1], 54 nM; in assay [2] it was 7.2 nM; with MV4-11 it was 250 nM.
With `Cn1cc(-c2ccccc2Oc2ccccc2)c2cc(C(=O)NCCCCCCC(=O)Nc3ccccc3N)[nH]c2c1=O`, the IC50 on Histone deacetylase 1 is over 500 nM; in assay [3], over 500 nM; in assay [1], 140 nM; in assay [2], 15.4 nM; with MV4-11 it was 130 nM.
Consider `Cn1cc(-c2ccccc2C(F)(F)F)c2cc(C(=O)NCc3ccc(C(=O)Nc4ccccc4N)cc3)[nH]c2c1=O`, for which the IC50 was determined as 210 nM against Histone deacetylase 1, 371 nM in assay [1] and 571 nM in assay [2].
With `Cn1cc(-c2cc(C(C)(C)O)ccc2OC2CC2)c2cc(C(=O)NCc3ccc(C(=O)Nc4ccccc4N)cc3)[nH]c2c1=O`, the IC50 worked out at 68.8 nM on Histone deacetylase 1, 7.7 nM in assay [1], 2.1 nM in assay [2] and 40 nM in the assay on MV4-11.
For the molecule `Nc1ccccc1NC(=O)c1ccc(CNC(=O)OCc2cccnc2)cc1` [ENTINOSTAT], the half-maximal inhibitory concentration (IC50) is over 10000 nM in assay [1], over 10000 nM in assay [2] and 240 nM with MV4-11.
On to `Cn1cc(-c2cccc(C(F)(F)F)c2)c2cc(C(=O)NCc3ccc(C(=O)Nc4ccccc4N)cc3)[nH]c2c1=O`, for which the IC50 at Histone deacetylase 1 was over 500 nM; in assay [1], 823 nM; in assay [2], 313 nM.
Regarding `CCNC(=O)c1cc2c(-c3cc(C(C)(C)O)ccc3Oc3c(C)cc(F)cc3C)cn(C)c(=O)c2[nH]1` [ABBV-744], the results for the IC50 (on Histone deacetylase 1; in assay [3]; in the assay with MV4-11) were over 10000 nM, over 10000 nM and 250 nM, respectively.
For `CC(C)Oc1ccc(C(C)(C)O)cc1-c1cn(C)c(=O)c2[nH]c(C(=O)NCc3ccc(C(=O)NO)cc3)cc12`, the IC50 against Histone deacetylase 1 worked out at 36 nM; in assay [3] it was 52 nM; in assay [1], 31.3 nM; in assay [2], 10 nM; in the assay with MV4-11, 350 nM.
`Cn1cc(-c2ccc(C(F)(F)F)cc2)c2cc(C(=O)NCc3ccc(C(=O)Nc4ccccc4N)cc3)[nH]c2c1=O`: the IC50 on Histone deacetylase 1 was determined as 240 nM; in assay [1] it was 146 nM; in assay [2], 364 nM.
Consider `Cn1cc(-c2ccccc2Oc2ccccc2)c2cc(C(=O)NCCCC(=O)NO)[nH]c2c1=O`, for which the IC50 is over 500 nM on Histone deacetylase 1; 144 nM in assay [3]; 142 nM in assay [1]; 103 nM in assay [2]; 380 nM in the assay with MV4-11.
`Cn1cc(-c2ccccc2Cl)c2cc(C(=O)NCc3ccc(C(=O)Nc4ccccc4N)cc3)[nH]c2c1=O`: the IC50 on Histone deacetylase 1 turned out to be 48.8 nM; in assay [1], 102 nM; in assay [2] it was 206 nM.
For the molecule `Cn1cc(-c2ccc(Cl)cc2)c2cc(C(=O)NCc3ccc(C(=O)Nc4ccccc4N)cc3)[nH]c2c1=O`, the values for the IC50 (at Histone deacetylase 1; in assay [1]; in assay [2]) were 59.3 nM, 62.4 nM and 278 nM, respectively.
On to `Cn1cc(-c2ccccc2F)c2cc(C(=O)NCc3ccc(C(=O)Nc4ccccc4N)cc3)[nH]c2c1=O`, for which the IC50 was found to be 20.8 nM against Histone deacetylase 1, 85.9 nM in assay [1], 55.3 nM in assay [2] and 230 nM in the assay on MV4-11.
For `Cn1cc(-c2ccccc2Oc2ccccc2)c2cc(C(=O)NCCCCC(=O)Nc3ccccc3N)[nH]c2c1=O`, the half-inhibitory concentration (IC50) against Histone deacetylase 1 was over 500 nM; in assay [3], over 500 nM; in assay [1], 73 nM; in assay [2], 11.3 nM; with MV4-11, 240 nM.
For `Cn1cc(-c2cc(C(C)(C)O)ccc2Oc2ccc(F)cc2F)c2cc(C(=O)NCc3ccc(C(=O)Nc4ccccc4N)cc3)[nH]c2c1=O`, the half-maximal inhibitory concentration (IC50) is 164 nM against Histone deacetylase 1, 18.1 nM in assay [1], 1.5 nM in assay [2] and 90 nM with MV4-11.
The corresponding values for `Cn1cc(-c2ccc(F)cc2)c2cc(C(=O)NCc3ccc(C(=O)Nc4ccccc4N)cc3)[nH]c2c1=O` are 47.3 nM, 44.1 nM, 79.9 nM and 220 nM.
In the same order, the values of `COc1ccc(C(C)(C)O)cc1-c1cn(C)c(=O)c2[nH]c(C(=O)NCc3ccc(C(=O)Nc4ccccc4N)cc3)cc12` are 333 nM, 3.9 nM, 7 nM and 420 nM.
The corresponding values for `Cc1ccccc1-c1cn(C)c(=O)c2[nH]c(C(=O)NCc3ccc(C(=O)Nc4ccccc4N)cc3)cc12` are 63.9 nM, 117 nM, 149 nM and 310 nM.
In the case of `Cn1cc(-c2cccc(F)c2)c2cc(C(=O)NCc3ccc(C(=O)Nc4ccccc4N)cc3)[nH]c2c1=O`, the IC50 at Histone deacetylase 1 amounted to 53.1 nM; in assay [1], 50.9 nM; in assay [2] it was 75.9 nM; with MV4-11, 210 nM.
In the same order, the values of `COc1ccccc1-c1cn(C)c(=O)c2[nH]c(C(=O)NCc3ccc(C(=O)Nc4ccccc4N)cc3)cc12` are 57.6 nM, 22.6 nM, 47.6 nM and 200 nM.
As to `COc1ccc(-c2cn(C)c(=O)c3[nH]c(C(=O)NCc4ccc(C(=O)Nc5ccccc5N)cc4)cc23)cc1`, the half-inhibitory concentration (IC50) against Histone deacetylase 1 was determined as 46.8 nM; in assay [1], 40.5 nM; in assay [2] it was 61.2 nM; in the assay with MV4-11, 320 nM.
The corresponding values for `Cn1cc(-c2cccc(C(C)(C)O)c2)c2cc(C(=O)NCc3ccc(C(=O)Nc4ccccc4N)cc3)[nH]c2c1=O` are 28.1 nM, 20 nM, 30 nM and 2200 nM.
In the same order, the values of `COc1cccc(-c2cn(C)c(=O)c3[nH]c(C(=O)NCc4ccc(C(=O)Nc5ccccc5N)cc4)cc23)c1` are 54.5 nM, 30.1 nM, 116 nM and 250 nM.
Turning to `Cn1cc(-c2cc(C(C)(C)O)ccc2Oc2ccccc2)c2cc(C(=O)NCc3ccc(C(=O)Nc4ccccc4N)cc3)[nH]c2c1=O`, the IC50 came out at 229 nM at Histone deacetylase 1, 13.4 nM in assay [1], 3 nM in assay [2] and 100 nM in the assay on MV4-11.
Take `O=C(CCCCCCC(=O)Nc1ccccc1)NO` [VORINOSTAT]: the IC50 in assay [1] and in assay [2] was over 10000 nM throughout.
Regarding `Cn1cc(-c2ccccc2)c2cc(C(=O)NCc3ccc(C(=O)Nc4ccccc4N)cc3)[nH]c2c1=O`, the IC50 against Histone deacetylase 1 was 52 nM; in assay [1], 47.8 nM; in assay [2], 75.8 nM; in the assay with MV4-11 it was 230 nM.
For the molecule `Cc1cccc(-c2cn(C)c(=O)c3[nH]c(C(=O)NCc4ccc(C(=O)Nc5ccccc5N)cc4)cc23)c1`, the IC50 amounted to 54.9 nM on Histone deacetylase 1, 52.8 nM in assay [1] and 105 nM in assay [2].
Take `Cn1cc(-c2cccc(Cl)c2)c2cc(C(=O)NCc3ccc(C(=O)Nc4ccccc4N)cc3)[nH]c2c1=O`: the IC50 against Histone deacetylase 1 was 134 nM; in assay [1], 65.5 nM; in assay [2], 158 nM; in the assay with MV4-11 it was 190 nM.
For `Cc1ccc(-c2cn(C)c(=O)c3[nH]c(C(=O)NCc4ccc(C(=O)Nc5ccccc5N)cc4)cc23)cc1`, the IC50 came out at 94 nM against Histone deacetylase 1, 61 nM in assay [1] and 122 nM in assay [2].
For the molecule `Cc1sc2c(c1C)C(c1ccc(Cl)cc1)=N[C@@H](CC(=O)Nc1ccc(O)cc1)c1nnc(C)n1-2` [BIRABRESIB], the values for the IC50 (at Histone deacetylase 1; in assay [3]; in the assay with MV4-11) were over 10000 nM, over 10000 nM and 200 nM, respectively.
